This passage reports IC50 results from US20260365628A1, “SUBSTITUTED 3,4-DIHYDROQUINOLINONE INHIBITORS OF TSHR” (Septerna, Inc., priority 2022, published 2026).

The experiment concerns the target T1, hTSHR (Homo sapiens, UniProt P16473).
T1 construct: expressed in transfected cells
Description: hTSHR TR-FRET cAMP Assay (inhibition of M22-stimulated cAMP production). The experiment is classed as cell-based. Conditions: Expi293F Inducible cells stably expressing hTSHR; cAMP HTRF; stimulated with EC80 of anti-TSHR antibody M22; 15 min compound preincubation, 30 min at 37° C.; read-out: Activity (IC50 bins). In short, it runs like this: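 Readout was a cAMP HTRF ratio of 655/620 nm after lysis, scaled between the EC80 M22 signal (0% inhibition) and no-agonist vehicle (100%). Frozen induced Expi293F-hTSHR cells saw test compounds (0.5% DMSO) for 15 min at 37 °C before 30 min of M22 stimulation at EC80.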

T1 sequence (P16473 21-764): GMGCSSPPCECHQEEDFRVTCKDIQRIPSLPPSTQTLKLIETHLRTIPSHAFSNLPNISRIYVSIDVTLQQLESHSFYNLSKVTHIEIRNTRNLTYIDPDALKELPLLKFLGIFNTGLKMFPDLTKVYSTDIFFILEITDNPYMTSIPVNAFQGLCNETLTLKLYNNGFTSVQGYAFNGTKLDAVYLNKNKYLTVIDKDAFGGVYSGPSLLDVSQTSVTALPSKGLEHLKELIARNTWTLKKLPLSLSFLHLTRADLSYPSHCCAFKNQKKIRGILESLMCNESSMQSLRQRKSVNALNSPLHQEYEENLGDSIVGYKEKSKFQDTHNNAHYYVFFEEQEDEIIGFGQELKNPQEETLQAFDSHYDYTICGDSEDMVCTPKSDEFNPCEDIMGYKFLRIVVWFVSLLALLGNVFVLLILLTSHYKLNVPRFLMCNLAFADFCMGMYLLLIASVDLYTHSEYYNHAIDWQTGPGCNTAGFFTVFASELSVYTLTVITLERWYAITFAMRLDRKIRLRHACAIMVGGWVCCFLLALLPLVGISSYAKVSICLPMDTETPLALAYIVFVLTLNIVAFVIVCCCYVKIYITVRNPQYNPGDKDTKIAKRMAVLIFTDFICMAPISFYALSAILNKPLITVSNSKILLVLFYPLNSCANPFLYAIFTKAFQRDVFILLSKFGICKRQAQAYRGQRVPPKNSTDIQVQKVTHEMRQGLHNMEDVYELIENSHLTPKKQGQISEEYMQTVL

What is called IC50 is the concentration needed to halve the response being measured. `C[C@H]1Oc2cc(NC(=O)NC3(C(F)(F)F)CCCC3)ccc2N([C@@H](C)c2ccccc2)C1=O` [Example 257, 1-((R)-2-methyl-3-oxo-4-((S)-1-phen-ylethyl)-3,4-dihydro-2H-benzo[b][1,4]oxazin-7-yl)-3-(1-(trifluoromethyl)-cyclopentyl)urea]: the IC50 is less than 100 nM.
As for `C[C@H]1Oc2cc(NC(=O)NC3CCC(F)(F)CC3)ccc2N([C@@H](C)c2ccccc2)C1=O` [Example 258, 1-(4,4-difluoro-cyclohexyl)-3-((R)-2-methyl-3-oxo-4-((S)-1-phenyl-ethyl)-3,4-dihydro-2H-benzo[b][1,4]oxazin-7-yl)urea], the IC50 lay within 100 to 1000 nM.
Consider `C[C@H]1Oc2cc(NC(=O)NC3(C(F)(F)F)CCC3)ccc2N([C@@H](C)c2ccccc2)C1=O` [Example 259, 1-((R)-2-methyl-3-oxo-4-((S)-1-phenylethyl)-3,4-dihydro-2H-benzo [b][1,4]oxazin-7-yl)-3-(1-(trifluoro-methyl)cyclo-butyl)urea], for which the IC50 was less than 100 nM.
Under `C[C@H]1Oc2cc(NC(=O)NC3(C)CC(F)(F)C3)ccc2N([C@@H](C)c2ccccc2)C1=O` [Example 260, 1-(3,3-difluoro-1-methylcyclobutyl)-3-((R)-2-methyl-3-oxo-4-((S)-1-phen-ylethyl)-3,4-dihydro-2H-benzo[b][1,4]oxazin-7-yl)urea] stands 100 to 1000 nM; under `COCC1(NC(=O)Nc2ccc3c(c2)O[C@H](C)C(=O)N3[C@@H](C)c2ccccc2)CCC1` [Example 261, 1-(1-(methoxy-methyl)cyclobutyl)-3-((R)-2-methyl-3-oxo-4-((S)-1-phen-ylethyl)-3,4-dihydro-2H-benzo [b][1,4]oxazin-7-yl)urea], 100 to 1000 nM; under `C[C@H]1Oc2cc(NC(=O)NC3(C)COC3)ccc2N([C@@H](C)c2ccccc2)C1=O` [Example 262, 1-((R)-2-methyl-3-oxo-4-((S)-1-phenylethyl)-3,4-dihydro-2H-benzo [b][1,4]oxazin-7-yl)-3-(3-methyl-oxetan-3-yl)urea], greater than 1000 nM.
Under `C[C@H]1Oc2cc(NC(=O)NC3(C(F)(F)F)COC3)ccc2N([C@@H](C)c2ccccc2)C1=O` [Example 263, 1-((R)-2-methyl-3-oxo-4-((S)-1-phen-ylethyl)-3,4-dihydro-2H-benzo[b][1,4]oxazin-7-yl)-3-(3-(trifluoromethyl)-oxetan-3-yl)urea] stands 100 to 1000 nM.
For the compound `C[C@H]1Oc2cc(NC(=O)NC3(C(F)(F)F)CC(F)(F)C3)ccc2N([C@@H](C)c2ccccc2)C1=O` [Example 264, 1-(3,3-difluoro-1-(trifluoromethyl)-cyclobutyl)-3-((R)-2-methyl-3-oxo-4-((S)-1-phenylethyl)-3,4-dihydro-2H-benzo[b][1,4]oxazin-7-yl)urea], the IC50 was in the range of 100 to 1000 nM.
For `C[C@H]1Oc2cc(NC(=O)NC3(C)CCOCC3)ccc2N([C@@H](C)c2ccccc2)C1=O` [Example 265, 1-((R)-2-methyl-3-oxo-4-((S)-1-phen-ylethyl)-3,4-dihydro-2H-benzo[b][1,4]oxazin-7-yl)-3-(4-methyltetrahydro-2H-pyran-4-yl)urea] the value was 100 to 1000 nM; for `Cc1ccc(C#N)c(CN2C(=O)CCc3cc(NC(=O)NC(C)(C)C)ccc32)c1` [Example 266, 3-tert-butyl-1-{1-[(2-cyano-5-methylphenyl)methyl]-2-oxo-3,4-dihydroquinolin-6-yl}urea], greater than 1000 nM.
On to `CC(C)(C)NC(=O)Nc1ccc2c(c1Cl)CCC(=O)N2Cc1ccccc1` [Example 267, 1-(1-benzyl-5-chloro-2-oxo-1,2,3,4-tetrahydroquinolin-6-yl)-3-(tert-butyl)urea], for which the IC50 was in the range of 100 to 1000 nM.
For `C[C@@H]1Oc2cc(NC(=O)NC(C)(C)C)ccc2N([C@@H](C)c2ccccc2)C1=O` [Example 268, 1-(tert-butyl)-3-((S)-2-methyl-3-oxo-4-((S)-1-phenylethyl)-3,4-dihydro-2H-benzo[b][1,4]oxazin-7-yl)urea] the value was 100 to 1000 nM.
Consider `C[C@H]1Oc2cc(NC(=O)NC(C)(C)C)ccc2N([C@@H](C)c2ccccc2)C1=O` [Example 269, 1-(tert-butyl)-3-((R)-2-methyl-3-oxo-4-((S)-1-phenylethyl)-3,4-dihydro-2H-benzo[b][1,4]oxazin-7-yl)urea], for which the IC50 was less than 100 nM.
With `CC(C)(C)NC(=O)Nc1cc2c(cc1C#N)N(Cc1ccccc1)C(=O)CC2` [Example 270, 1-(1-benzyl-7-cyano-2-oxo-3,4-dihydroquinolin-6-yl)-3-tert-butylurea], the IC50 was greater than 1000 nM.
Regarding `CC(c1cccc(C(F)(F)F)c1)N1C(=O)N(C)Cc2cc(NC(=O)NC(C)(C)C)ccc21` (stereo not drawn) [Example 271, 1-(tert-butyl)-3-(3-methyl-2-oxo-1-(1-(3-(trifluoromethyl)phenyl)ethyl)-1,2,3,4-tetrahydroquinazolin-6-yl)urea], the IC50 was greater than 1000 nM.
For `Cc1nc2cc(NC(=O)NC(C)(C)C)ccc2n(Cc2ccccc2)c1=O` [Example 272, 1-(1-benzyl-3-methyl-2-oxo-1,2-dihydroquinoxalin-6-yl)-3-(tert-butyl)urea] the value was greater than 1000 nM; for `Cc1nc2cc(NC(=O)NC(C)(C)C)ccc2n(Cc2cccc(Cl)c2)c1=O` [Example 273, 3-tert-butyl-1-{1-[(3-chlorophenyl)methyl]-3-methyl-2-oxoquinoxalin-6-yl}urea], 100 to 1000 nM.
Take `CC(C)(C)NC(=O)Nc1ccc2c(n1)CCC(=O)N2Cc1cccc(C(F)(F)F)c1` [Example 274, 1-(tert-butyl)-3-(6-oxo-5-(3-(trifluoromethyl)benzyl)-5,6,7,8-tetrahydro-1,5-naphthyridin-2-yl)urea]: the IC50 is 100 to 1000 nM.
For the compound `CC(C)(C)NC(=O)Nc1ccc2c(c1)C[C@H](CC#N)C(=O)N2Cc1ccccc1` [Example 275, (R)-1-(1-benzyl-3-(cyanomethyl)-2-oxo-1,2,3,4-tetrahydroquinolin-6-yl)-3-(tert-butyl)urea], the IC50 is greater than 1000 nM.
Regarding `CC(C)(C)NC(=O)Nc1ccc2c(c1)C[C@@H](CC#N)C(=O)N2Cc1ccccc1` [Example 276, (S)-1-(1-benzyl-3-(cyanomethyl)-2-oxo-1,2,3,4-tetrahydroquinolin-6-yl)-3-(tert-butyl)urea], the IC50 was greater than 1000 nM.
Regarding `CC[C@H]1Oc2cc(NC(=O)NC(C)(C)C)ccc2N(Cc2ccccc2)C1=O` [Example 277, (R)-1-(4-benzyl-2-ethyl-3-oxo-3,4-dihydro-2H-benzo[b][1,4]oxazin-7-yl)-3-(tert-butyl)urea], the IC50 is greater than 1000 nM.
For `CC[C@@H]1Oc2cc(NC(=O)NC(C)(C)C)ccc2N(Cc2ccccc2)C1=O` [Example 278, (S)-1-(4-benzyl-2-ethyl-3-oxo-3,4-dihydro-2H-benzo[b][1,4]oxazin-7-yl)-3-(tert-butyl)urea] the value was greater than 1000 nM.
Take `CC(C)(C)NC(=O)Nc1ccc2c(c1C#N)CCC(=O)N2Cc1ccccc1` [Example 279, 1-(1-benzyl-5-cyano-2-oxo-1,2,3,4-tetrahydroquinolin-6-yl)-3-(tert-butyl)urea]: the IC50 was greater than 1000 nM.
As for `C[C@H]1Oc2nc(NC(=O)NC(C)(C)C)ccc2N(Cc2ccccc2)C1=O` [Example 280, (R)-1-(1-benzyl-3-methyl-2-oxo-2,3-dihydro-1H-pyrido[2,3-b][1,4]oxazin-6-yl)-3-(tert-butyl)urea], the IC50 is 100 to 1000 nM.
Consider `CC(C)(C)NC(=O)Nc1ccc2c(n1)CCC(=O)N2Cc1cccc(Cl)c1` [Example 281, 1-(tert-butyl)-3-(5-(3-chlorobenzyl)-6-oxo-5,6,7,8-tetrahydro-1,5-naphthyridin-2-yl)urea], for which the IC50 fell in the range of 100 to 1000 nM.
Under `C[C@@H](c1cccc(C(F)(F)F)c1)N1C(=O)CCc2nc(NC(=O)NC(C)(C)C)ccc21` [Example 282, (S)-1-(tert-butyl)-3-(6-oxo-5-(1-(3-(trifluoromethyl)phenyl)ethyl)-5,6,7,8-tetrahydro-1,5-naphthyridin-2-yl)urea] stands 100 to 1000 nM.
Under `C[C@H](c1cccc(C(F)(F)F)c1)N1C(=O)CCc2nc(NC(=O)NC(C)(C)C)ccc21` [Example 283, (R)-1-(tert-butyl)-3-(6-oxo-5-(1-(3-(trifluoromethyl)phenyl)ethyl)-5,6,7,8-tetrahydro-1,5-naphthyridin-2-yl)urea] stands greater than 1000 nM; under `O=C(Nc1ccccc1)Nc1ccc2c(c1)CCC(=O)N2Cc1ccccc1` [Example 284, 3-(1-benzyl-2-oxo-3,4-dihydroquinolin-6-yl)-1-phenylurea], greater than 1000 nM.
Regarding `CC(C)(C)CC(=O)Nc1ccc2c(c1)CCC(=O)N2Cc1ccccc1` [Example 285, N-(1-benzyl-2-oxo-3,4-dihydroquinolin-6-yl)-3,3-dimethylbutanamide], the IC50 is greater than 1000 nM.
For the compound `C[C@@H]1Oc2nc(NC(=O)NC(C)(C)C)ccc2N(Cc2cccc(Cl)c2)C1=O` [Example 286, (S)-1-(tert-butyl)-3-(1-(3-chlorobenzyl)-3-methyl-2-oxo-2,3-dihydro-1H-pyrido[2,3-b][1,4]oxazin-6-yl)urea], the IC50 was greater than 1000 nM.
Under `C[C@H]1Oc2nc(NC(=O)NC(C)(C)C)ccc2N(Cc2cccc(Cl)c2)C1=O` [Example 287, (R)-1-(tert-butyl)-3-(1-(3-chlorobenzyl)-3-methyl-2-oxo-2,3-dihydro-1H-pyrido[2,3-b][1,4]oxazin-6-yl)urea] stands 100 to 1000 nM.
Consider `COC[C@@H]1Oc2cc(NC(=O)NC(C)(C)C)ccc2N(Cc2ccccc2)C1=O` [Example 288, (S)-1-(4-benzyl-2-(methoxymethyl)-3-oxo-3,4-dihydro-2H-benzo[b][1,4]oxazin-7-yl)-3-(tert-butyl)urea], for which the IC50 is greater than 1000 nM.
For `COC[C@H]1Oc2cc(NC(=O)NC(C)(C)C)ccc2N(Cc2ccccc2)C1=O` [Example 289, (R)-1-(4-benzyl-2-(methoxymethyl)-3-oxo-3,4-dihydro-2H-benzo[b][1,4]oxazin-7-yl)-3-(tert-butyl)urea] the value was greater than 1000 nM.
